For one assay, the system named is S. aureus. Description: Agar diffusion test (TSA, bored hole / paper disk), dark vs light. The settings on record: for zone of inhibition at 5000 µg/mL: Staphylococcus aureus, chlorhexidine control 5 mg/mL. The format is cell-based, Staphylococcus aureus.
The next assay relates to microorganisms. The assay can be described thus: Photodynamic inactivation by isolated fractions and commercial anthraquinones. Format: cell-based. The settings on record: for Order of photodynamic inactivation of microorganisms: commercial samples of anthraquinones; for Photodynamic effect of components isolated by fractionation: isolated by fractionation of the extract. The text has this: The anthraquinones, or their glycosylated derivatives, could be responsible for the photosensitizing effect of the extract. […] Commercial samples of anthraquinones produced photodynamic inactivation of microorganisms in the order emodin>physcion>rhein. In some P. cuspidatum extracts, the proportions of emodin and physcion are between 0.51-0.65% and 0.24-0.27% by weight, respectively.

For a further assay, the system named is S. mutans. The assay can be described thus: Agar diffusion test (TSA, bored hole / paper disk), dark vs light. The format is cell-based, Streptococcus mutans. The settings on record: for zone of inhibition at 5000 µg/mL: chlorhexidine control 5 mg/mL. On the technique in general: Agar diffusion results depend on both activity and mobility in agar.
Where [1] appears, read: light-activated, extract 40 μg, components at their proportions found in the extract.
Where [2] appears, read: comparative test, samples at strength as labelled, dark.
[3] abbreviates: comparative test, samples at strength as labelled, light 36 J cm^-2.
Where [4] appears, read: light-activated, extract 40 μg, components at their proportions found in the extract, listed as Emodin 0.001%.

Read-outs that look alike come from different tables or passages of the source.

As to `COc1cc(O)c2c(c1)C(=O)c1cc(C)cc(O)c1C2=O` [Physcion], in the assay with S. aureus (light-activated, extract 40 μg, components at their proportions found in the extract, listed as Physcion 0.001%), the “Inhibition zone, S. aureus, Light” value was determined as 8.5 mm. For the same compound, in the assay on microorganisms, the “Order of photodynamic inactivation of microorganisms” value was “emodin>physcion>rhein”. The “Inhibition zone, S. mutans, Light” value in the assay on S. mutans (setting [1]) was “inactive”.

For the compound `Cc1cc2nc3ccc(N(C)C)cc3[s+]c2cc1N.[Cl-]` [TB 1%, Toluidine Blue 0], the “Inhibition zone, S. aureus, Dark” value in the assay with S. aureus (setting [2]) is given as 15 mm. For the same compound, the “Inhibition zone, S. aureus, Light” value in the assay on S. aureus (setting [3]) worked out at 16 mm. Further, the “Inhibition zone, S. mutans, Dark” value in the assay on S. mutans (setting [2]) worked out at 15 mm. Moreover, the “Inhibition zone, S. mutans, Light” value in the assay with S. mutans (setting [3]) is 15 mm.

Consider `[H]/N=C(\N/C(=N/[H])NCCCCCCNC(=N)NC(=N)Nc1ccc(Cl)cc1)Nc1ccc(Cl)cc1` [chlorhexidine, Chlorhexidine Digluconate], for which the zone of inhibition at 5000 µg/mL in the assay on S. aureus (dark, read-out: Inhibition zone, S. aureus, dark (reference)) came to 18 mm; in the assay on S. aureus (light 35 J cm^-2, read-out: Inhibition zone, S. aureus, light (reference)), 18 mm; with S. mutans (Streptococcus mutans, dark, read-out: Inhibition zone, S. mutans, dark (reference)) it was 18 mm; with S. mutans (Streptococcus mutans, light 35 J cm^-2, read-out: Inhibition zone, S. mutans, light (reference)) it was 18 mm.

For the compound `Oc1ccc(C=Cc2cc(O)cc(O)c2)cc1` [resveratrol, Resveratrol], the “Antimicrobial activity in the dark” value in the assay with S. mutans (agar diffusion, dark (FIG. 14)) was “inactive”. Moreover, in the assay with S. mutans (agar diffusion, light 36 J cm^-2 (FIG. 14)), the “Antimicrobial activity with light activation” value is “inactive”.

For `Cc1cc(O)c2c(c1)C(=O)c1cc(O)cc(O)c1C2=O` [Emodin], the “Inhibition zone, S. aureus, Light” value in the assay with S. aureus (setting [4]) turned out to be 8.5 mm. For the same compound, in the assay with microorganisms, the “Order of photodynamic inactivation of microorganisms” value was “emodin>physcion>rhein” and the “Photodynamic effect of components isolated by fractionation” value (“Photodynamic effect … by fractionation” below) is given as “greatest photodynamic effect”. Besides, the zone of inhibition at 40 µg/disc in the assay with S. mutans (Streptococcus mutans, light or radiation study, higher concentrations: 20 μL of 2 mg mL^-1 = 40 μg, light 36 J cm^-2 (FIG. 14), read-out: Inhibition zone (photoactivity)) was 10 mm. In addition, the “Inhibition zone, S. mutans, Light” value in the assay on S. mutans (setting [1]) worked out at 7 mm. The “Inhibition zone, S. mutans, Light” value with S. mutans (setting [4]) was 7.0 mm.

In the case of `COc1cc(O[C@@H]2O[C@H](CO)[C@@H](O)[C@H](O)[C@H]2O)c2c(c1)C(=O)c1cc(C)cc(O)c1C2=O` [anthraquinones A], in the assay with microorganisms, the “Photodynamic effect … by fractionation” value was “inactive”.

For `Cc1cc(O)c2c(c1)C(=O)c1cc(O)cc(O[C@@H]3O[C@H](CO)[C@@H](O)[C@H](O)[C@H]3O)c1C2=O` [anthraquinones B, Anthraglycoside B], in the assay on microorganisms, the “Photodynamic effect … by fractionation” value was “inactive”.

Values taken from patent publication US10350255B2, “Polygonum cuspidatum extracts” (priority 2015, dated 2019).
